Assay results reported in patent US6790978B2, “Thyromimetic organic compounds” (Novartis AG, priority 1999, dated 2004).

Assays:
[1] = molecular target: triiodothyronine (T3) nuclear receptor; test: T3 nuclear receptor binding assay (rat liver nuclei, [125I]-L-T3 displacement); conditions: 0.3 nM [125I]-L-T3, 22° C.
Method: The in vitro binding to T3 nuclear receptors is determined as follows:
Rat liver nuclei and plasma membrane preparations are obtained from Sprague-Dawley (CD) rats (Charles River Labs.) by differential centrifugation as described by Emmelot at al (Methods in Enzymology 31:75, Part A, 1974) with minor modificatons. The nuclear fraction obtained from the 275 ×g pellet is further purified as generally described by Spindler et al (J. Biol. Chem. 250:4118, 1975).
The novel test compounds are assayed for binding to the nuclei by the method of Spindler et al (J. Biol. Chem. 250:4118, 1975). The nuclei are incubated at 22° C. with 0.3 nM of [^125I]-L-triiodothyronine (L-T3). Parallel incubations are conducted with tubes containing, in addition to the nuclei and radioactive L-T3, either various concentrations of the test compounds or 3 μM of nonradioactive L-T3. The latter is used as a measure of nonspecific binding. The radio-activity bound to the nuclei is determined following centrifugation of the reaction mixture at 800×g for 7 minutes and washing of the pellet obtained. The amount of [^125I]-L-T3 specifically bound is determined by subtracting the amount nonspecifically bound (radioactivity contained in the nuclear pellet following incubation with excess (3 μM) non-radioactive L-T3. The concentration of test compound which inhibits the specific binding of [^125I]-L-T3 by 50 percent (IC50) is determined graphically from the reciprocal plot of the specifically bound [^125I]-L-T3 versus the various concentrations of the test compound.

[2] = test system: serum cholesterol; test: Cholesterol lowering activity in the rat on a high cholesterol diet; type: in vivo; conditions: daily dose of about 20 μg/kg p.o.
Method: Cholesterol lowering activity is determined in the rat as follows:
Male Sprague-Dawley rats (230-250 g) (Taconic Farms) are maintained ad libitum on water and a high cholesterol diet (1.5% cholesterol and 0.5% cholic acid) for two weeks prior to and during the 7-day treatment period. Groups of animals are treated orally by gavage with the vehicle alone or with test compound for 7 consecutive days. After the last dose, animals are fasted for 18 hours and blood is collected. Blood samples are centrifuged at 2500 rpm for 10 minutes to prepare plasma for total cholesterol determination as well as LDL and HDL cholesterol concentrations. HDL values are determined after […] (Warnick and Albers, 1978). All samples are analyzed enzymatically for cholesterol with a diagnostic reagent kit (Sigma Chemical Co., St. Louis, Mo.). The analysis is performed on a Bio-Mek automated work station. LDL/VLDL fractions are precipitated in the following manner: 0.35 mL of plasma is aliquoted into Eppendorf tubes to which 12 μL of 2M manganese chloride, 11.2 μL of sodium heparin (Porcine Intestinal, 5000 units/mL), and 8.3 μL of normal saline are added. The samples are vortexed and are placed on ice for 15 minutes, then centrifuged at 4° C. for 10 minutes at 1300 rpm and the supernatant is enzymatically analyzed for cholesterol. […]

[3] = test system: serum cholesterol; test: Cholesterol lowering activity in normocholesterolemic dogs; type: in vivo; conditions: dog, daily dose of about 10 μg/kg p.o.
Text: Cholesterol lowering activity can also be evaluated in normocholesterolemic dogs fed regular chow following the procedure described above, by administration of test compound orally for 5 days.

[4] = test system: Lp(a); test: Lp(a) lowering activity in the normolipemic cynomolgus monkey; type: in vivo, cynomolgus monkey (Macaca fascicularis); conditions: normolipemic cynomolgus monkeys, 4 week treatment, daily oral dose of 75 μg/kg
Method: Cholesterol and Lp(a) lowering activity can be determined in the normolipemic cynomolgus monkey as follows:
Adult male and female cynomolgus monkeys (Macaca fascicularis) weighing 3-7 kg are used. Animals are individually housed and fed a standard monkey chow diet (Purina 5047) supplemented with fresh fruits and vegetables. Each animal serves as its own control and each dosing regime is followed by a wash out period. Test compounds were dissolved in ethanol, imbibed in fruit pulp and administered orally. Animals are dosed once a day with test compounds for a treatment period varying from 8 to 28 days. Blood samples are obtained after an overnight fast at baseline and at the end of the study. […] Plasma samples are divided into aliquots and stored at −70° C. until analyzed. Plasma concentrations of total cholesterol (TC) and triglycerides (TG) are determined by enzymatic methods using commercial kits (Sigma Diagnostics). High-density lipoprotein cholesterol (HDL-C) concentration is measured after precipitation of apoB-containing lipoproteins. Since the fasting plasma of cynomolgus monkeys on a chow diet contains negligible amounts of cholesterol in very low-density lipoprotein, the low-density lipoprotein cholesterol (LDL-C) concentration is calculated by subtracting HDL-C from TC. […] Quantification of Lp(a) is not affected by apo(a) size. […]

IC50 [1]	Structure (SMILES)	serum cholesterol lowering [2]	serum cholesterol lowering [3]	Lp(a) levels lowered [4]
~0.13 nM	Cc1cc(NC(=O)C(=O)O)cc(C)c1Oc1ccc(O)c(S(=O)(=O)c2ccc(Cl)cc2)c1 [Example 28]	–	–	–
~1 nM	Cc1cc(NC(=O)CC(=O)O)cc(C)c1Oc1ccc(O)c(S(=O)(=O)c2ccc(F)cc2)c1 [Example 35, N-{4-[3-(4-Fluorobenzenesulfonyl)-4-hydroxyphenoxy]-3,5-dimethylphenyl}malonamic acid]	–	–	–
~0.04 nM	O=C(O)C(=O)Nc1cc(Br)c(Oc2ccc(O)c(S(=O)(=O)c3ccc(F)cc3)c2)c(Br)c1 [Example 39, N-{3,5-Dibromo-4-[3-(4-fluorobenzenesulfonyl)-4-hydroxyphenoxy]phenyl}oxamic acid]	–	–	–
~0.17 nM	Cc1cc(NC(=O)C(=O)O)cc(C)c1Oc1ccc(O)c(S(=O)(=O)c2ccc(F)cc2)c1 [Example 26, N-{4-[3-(4-Fluorobenzenesulfonyl)4-hydroxyphenoxy]-3,5-dimethylphenyl}oxamic acid]	significantly lowers serum cholesterol	significantly lowers serum cholesterol	about 40%
